Laboratory results as given in PubChem BioAssay AID328 (DTP/NCI, 2004).
Several values for one entry are separate records, joined by “and”; a condition that tells them apart may be missing. Equal entries are not always repeated. Toxic doses and inconclusive results are not listed. How the source made its calls: active means survival T/C of 150% or more; inactive means T/C below 125% in these data.

Tested on: BDF1 mice, P388 leukemia ip, median survival T/C
Test: NCI In Vivo Anticancer Drug Screen. Data for tumor model P388 Leukemia (intraperitoneal) in B6D2F1 (BDF1) mice
Details: endpoint: median survival time, higher = longer survival
In short: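 Antitumour effect was judged in vivo: survival in drug-treated mice, normalised to that of vehicle-dosed controls, gives the reported T/C.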

Measured: T/C

COC1C(O)CC(OC2CC(Oc3cc4cc5c(c(O)c4c(O)c3C)C(=O)[C@@H](OC3CC(OC4CC(OC6CC(C)(O)C(OC(C)=O)C(C)O6)C(O)C(C)O4)C(O)C(C)O3)[C@H]([C@H](OC)C(=O)[C@@H](O)[C@@H](C)O)C5)OC(C)C2OC(C)=O)OC1C (stereo not given in full)
active: dose: 0.02 mg/kg/injection, schedule: Q01DX005 (ip), vehicle: saline 166 % of control | dose: 0.03 mg/kg/injection, schedule: Q01DX005 (ip), vehicle: saline 168 % of control | dose: 0.03 mg/kg/injection, schedule: Q01DX009 (ip), vehicle: saline 150 % of control | dose: 0.05 mg/kg/injection, schedule: Q01DX005 (ip), vehicle: clinical formulation 183 % of control | dose: 0.05 mg/kg/injection, schedule: Q01DX005 (ip), vehicle: saline 166 % of control and 183 % of control and 187 % of control | dose: 0.06 mg/kg/injection, schedule: Q01DX005 (ip), vehicle: saline 172 % of control | dose: 0.06 mg/kg/injection, schedule: Q01DX009 (ip), vehicle: saline 172 % of control | dose: 0.1 mg/kg/injection, schedule: Q01DX005 (ip), vehicle: clinical formulation 200 % of control | dose: 0.1 mg/kg/injection, schedule: Q01DX005 (ip), vehicle: saline 187 % of control (2×) and 193 % of control | dose: 0.13 mg/kg/injection, schedule: Q01DX005 (ip), vehicle: saline 177 % of control | dose: 0.13 mg/kg/injection, schedule: Q01DX009 (ip), vehicle: saline 172 % of control | dose: 0.15 mg/kg/injection, schedule: Q01DX005 (ip), vehicle: clinical formulation 225 % of control | dose: 0.15 mg/kg/injection, schedule: Q01DX005 (ip), vehicle: saline 204 % of control | dose: 0.2 mg/kg/injection, schedule: Q01DX005 (ip), vehicle: clinical formulation 170 % of control | dose: 0.2 mg/kg/injection, schedule: Q01DX005 (ip), vehicle: saline 254 % of control and 260 % of control and 158 % of control | dose: 0.25 mg/kg/injection, schedule: Q04DX003 (ip), vehicle: saline 200 % of control | dose: 0.4 mg/kg/injection, schedule: Q01DX001 (ip), vehicle: saline 150 % of control | dose: 0.5 mg/kg/injection, schedule: Q01DX001 (ip), vehicle: other 175 % of control | dose: 0.8 mg/kg/injection, schedule: Q01DX001 (ip), vehicle: saline 170 % of control | dose: 1.6 mg/kg/injection, schedule: Q01DX001 (ip), vehicle: saline 162 % of control | dose: 3.8 micrograms/kg/injection, schedule: Q03HX024 (ip), vehicle: saline 177 % of control | dose: 8.0 micrograms/kg/injection, schedule: Q01DX010 (ip), vehicle: saline 150 % of control | dose: 16.0 micrograms/kg/injection, schedule: Q01DX010 (ip), vehicle: saline 160 % of control | dose: 32.0 micrograms/kg/injection, schedule: Q01DX010 (ip), vehicle: saline 180 % of control and 195 % of control | dose: 60.0 micrograms/kg/injection, schedule: Q01DX010 (ip), vehicle: saline 154 % of control | dose: 62.0 micrograms/kg/injection, schedule: Q01DX009 (ip), vehicle: other 150 % of control | dose: 63.0 micrograms/kg/injection, schedule: Q01DX010 (ip), vehicle: saline 163 % of control and 185 % of control and 210 % of control | dose: 125.0 micrograms/kg/injection, schedule: Q01DX001 (ip), vehicle: clinical formulation 154 % of control and 168 % of control and 181 % of control | dose: 125.0 micrograms/kg/injection, schedule: Q01DX001 (ip), vehicle: water 213 % of control | dose: 125.0 micrograms/kg/injection, schedule: Q01DX009 (ip), vehicle: other 166 % of control | dose: 125.0 micrograms/kg/injection, schedule: Q01DX010 (ip), vehicle: saline 300 % of control and 209 % of control | dose: 250.0 micrograms/kg/injection, schedule: Q01DX001 (ip), vehicle: clinical formulation 186 % of control and 195 % of control and 200 % of control | dose: 250.0 micrograms/kg/injection, schedule: Q01DX001 (ip), vehicle: water 250 % of control | dose: 500.0 micrograms/kg/injection, schedule: Q01DX001 (ip), vehicle: clinical formulation 236 % of control and 190 % of control and 213 % of control | dose: 1000.0 micrograms/kg/injection, schedule: Q01DX001 (ip), vehicle: clinical formulation 231 % of control
inactive: dose: 0.03 mg/kg/injection, schedule: Q01DX001 (ip), vehicle: saline 109 % of control | dose: 0.13 mg/kg/injection, schedule: Q01DX001 (oral), vehicle: saline 100 % of control | dose: 0.13 mg/kg/injection, schedule: Q01DX001 (sc), vehicle: Klucel (hydroxypropylcellulose) (HPC) 100 % of control | dose: 0.13 mg/kg/injection, schedule: Q01DX010 (oral), vehicle: saline 100 % of control | dose: 0.13 mg/kg/injection, schedule: Q01DX010 (sc), vehicle: Klucel (hydroxypropylcellulose) (HPC) 109 % of control | dose: 0.25 mg/kg/injection, schedule: Q01DX001 (sc), vehicle: Klucel (hydroxypropylcellulose) (HPC) 100 % of control | dose: 0.25 mg/kg/injection, schedule: Q01DX009 (ip), vehicle: saline 95 % of control | dose: 0.25 mg/kg/injection, schedule: Q01DX010 (sc), vehicle: Klucel (hydroxypropylcellulose) (HPC) 95 % of control | dose: 0.5 mg/kg/injection, schedule: Q01DX001 (oral), vehicle: saline 95 % of control | dose: 0.5 mg/kg/injection, schedule: Q01DX001 (sc), vehicle: Klucel (hydroxypropylcellulose) (HPC) 109 % of control | dose: 0.5 mg/kg/injection, schedule: Q01DX010 (oral), vehicle: saline 109 % of control | dose: 0.5 mg/kg/injection, schedule: Q04DX003 (ip), vehicle: saline 100 % of control | dose: 1.0 mg/kg/injection, schedule: Q01DX010 (oral), vehicle: saline 100 % of control | dose: 2.0 mg/kg/injection, schedule: Q01DX001 (oral), vehicle: saline 109 % of control | dose: 2.0 mg/kg/injection, schedule: Q01DX010 (oral), vehicle: saline 100 % of control | dose: 0.9 micrograms/kg/injection, schedule: Q01DX010 (ip), vehicle: saline 90 % of control | dose: 1.9 micrograms/kg/injection, schedule: Q01DX010 (ip), vehicle: saline 86 % of control | dose: 3.8 micrograms/kg/injection, schedule: Q01DX010 (ip), vehicle: saline 100 % of control | dose: 200.0 micrograms/kg/injection, schedule: Q01DX009 (ip), vehicle: saline 100 % of control | dose: 2000.0 micrograms/kg/injection, schedule: Q01DX001 (ip), vehicle: clinical formulation 100 % of control
